The values that follow come from publication PMC8469962, “Unusual Bicyclo[3.2.1]Octanoid Neolignans from Leaves of Piper crocatum and Their Effect on Pyruvate Dehydrogenase Activity” (Plants, 2021).

“Also recorded” adds a separate entry of the source.

As a reminder, the IC50 is the midpoint of a concentration-inhibition curve.

The subject of this test is PDHE1α S300 phosphorylation. The test is described as follows: Pyruvate dehydrogenase complex (PDH) cellular activity: immunofluorescence of p-PDH E1α (Ser300) in AD-293 cells. In kind it is cell-based, Human. The note with it: for IC50: Homo sapiens, AD293, 24 h incubation, normalized to 5 mM DCA control, read-out: IC50, inhibition of PDHE1α S300 phosphorylation; for inhibition of phosphorylation of E1α S300 in fluorescent images, compared with DCA: compounds at 60 µM, DCA at 5 mM. The method, then: Point two percent gelatin was added to a black 96-well plate with a clear bottom and incubated for 1 h. Afterwards, the plate was washed with growth media. Human AD-293 cells, derived from the HEK293 cells, were seeded into black 96-well plates with a clear bottom and grown for 24 h. Compounds were then added and incubated for 24 h. The cells were then fixed with 2% paraformaldehyde, and permeabilized anti-PDHE1 pSer300 (Merk Millipore, Burlington, MA, AP1064) was added and incubated overnight. Next, the cells were washed and Alexa fluor 488, goat anti-rabbit ab (Invitrogen, Waltham, MA, A11008) was added with Hoechst 33,258 (Invitrogen, H3569) and incubated for 2 h. Finally, cells were washed, and the plates were measured in Operetta (PerkinElmer, Waltham, MA). The raw data were normalized for the pharmacological inhibitor control (5 mM dichloroacetate (DCA)) and percentage effect values using the software package Harmony High-Content Imaging and Analysis Software 3.1. Dose response curves were generated by plotting the percentage effect values and IC50 values were calculated via GraphPad Prism 6.

On to `C=CCC1=CC2(OC)C(C)C(c3cc(OC)c(OC4OC(CO)C(O)C(O)C4O)c(OC)c3)C(OC)(C1=O)C2O` [Compound 3, (1′R,2′S,3′R,7S,8R)-∆^5′^8′-2′-hydroxy-3,5,1′,3′-tetramethoxyl-4′-oxo-8.1′7.3′-neolignan-4-O-β-D-glucopyranoside], for which the IC50 was 80.2 µM and the “inhibition of phosphorylation of E1α S300 in fluorescent images, compared with DCA” value is reported as “better effect than that of dichloroacetate (DCA)”.
`C=CCC12C=C(OC)C(=O)C(OC)(C(c3cc(OC)c(OC4OC(CO)C(O)C(O)C4O)c(OC)c3)C1C)C2O` [Compound 2, (1′R,2′R,3′S,7S,8R)-∆^5′^,8′-2′-hydroxy-3,5,3′,5′-tetramethoxyl-4′-oxo-8.1′7.3′-neolignan-4-O-β-D-glucopyranoside]: the IC50 was found to be 99.8 µM; the “inhibition of phosphorylation of E1α S300 in fluorescent images, compared with DCA” value was “better effect than that of dichloroacetate (DCA); also recorded: better inhibitory effect of compound 2 than that of compound 3 and DCA”.
